Results as given in patent publication US20240383922A1, “KRAS Modulating Compounds” (Gilead Sciences, Inc., priority 2023, published 2024).

How the values were obtained:
[1] = system: cellular pERK in MIA-PaCa-2 (KRAS-G12C) cell-line; test: Cell based pERK assay (HTRF), MIA-PaCa-2; details: Homo sapiens; MIA-PaCa-2 (KRAS-G12C) cells, 2 hours incubation; read-out: MIAPaCa2 pERK EC50
In short: (§1)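 AsPC-1 (5000/well) or MIA-PaCa-2, NCI-H441 and Kuramochi (7500/well) cells were seeded overnight, then treated with 1:3 serially diluted compound for 2 h at 37 °C. Lysis/detection reagent for phospho-ERK1/2 HTRF was added, plates stood overnight at room temperature, and the 665/615 nm ratio was read.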

[2] = system: cellular pERK in ASPC-1 (KRAS G12D) cell-line; test: Cell based pERK assay (HTRF), ASPC-1; details: Homo sapiens, ASPC1; ASPC-1 (KRAS G12D) cells, 2 hours incubation
In short: as §1

GDP-loaded KRAS-G12V = GDP-loaded KRAS-G12V (Homo sapiens (Human), UniProt P01116, G12V); test: KRAS (GDP) biochemical TR-FRET probe displacement assay, KRAS-G12V; format: binding; details: 2 hours
GDP-loaded KRAS-G12V, sequence (P01116-2 other isoform, or with tags, fused parts or gaps G12V): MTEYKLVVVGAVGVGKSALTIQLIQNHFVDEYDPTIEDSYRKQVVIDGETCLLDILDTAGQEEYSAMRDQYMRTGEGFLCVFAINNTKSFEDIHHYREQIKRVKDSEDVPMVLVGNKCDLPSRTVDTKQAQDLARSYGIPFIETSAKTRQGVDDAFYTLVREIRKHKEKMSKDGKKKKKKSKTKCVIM
Procedure: (§2) KRAS (GDP) Biochemical Assays:
(§3) Compounds were serially diluted (1:3) in DMSO. The LabCyte ECHO Acoustic dispenser was used to pre-spot the assay plates (384-well Non-Binding Surface plates, Corning, Catalog #3824) with 50 nL of compound. 5 μL of 2× enzyme concentration was added to the pre-spotted plates and incubated for 30 minutes before adding 5 μL of 2× concentration of Eu-streptavidin and Cy-5 labelled probe (10 μL final reaction volume). The plates were incubated at room temperature for 2 hours before measuring TR-FRET ratio (665 nm/615 nm) on the Envision multimode plate reader. The ratios were normalized to a positive (saturating concentration of known inhibitor) and negative (DMSO) control and plotted against the log of compound concentration.

[3] = target: GDP-loaded wild-type KRAS (WT) (Homo sapiens (Human), UniProt P01116); test: KRAS (GDP) biochemical TR-FRET probe displacement assay, WT KRAS; format: binding; details: 2 hours
GDP-loaded wild-type KRAS (WT), sequence (P01116-2 other isoform, or with tags, fused parts or gaps): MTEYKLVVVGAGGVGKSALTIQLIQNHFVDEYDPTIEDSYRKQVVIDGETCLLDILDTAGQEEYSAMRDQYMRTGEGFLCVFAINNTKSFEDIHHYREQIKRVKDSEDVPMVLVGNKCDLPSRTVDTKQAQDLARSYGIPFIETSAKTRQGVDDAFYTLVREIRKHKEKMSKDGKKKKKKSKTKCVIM
Procedure: as §2, §3

GDP-loaded KRAS-G12D = GDP-loaded KRAS-G12D (Homo sapiens (Human), UniProt P01116, G12D); test: KRAS (GDP) biochemical TR-FRET probe displacement assay, KRAS-G12D; format: binding; details: 2 hours
GDP-loaded KRAS-G12D, sequence (P01116-2 other isoform, or with tags, fused parts or gaps G12D): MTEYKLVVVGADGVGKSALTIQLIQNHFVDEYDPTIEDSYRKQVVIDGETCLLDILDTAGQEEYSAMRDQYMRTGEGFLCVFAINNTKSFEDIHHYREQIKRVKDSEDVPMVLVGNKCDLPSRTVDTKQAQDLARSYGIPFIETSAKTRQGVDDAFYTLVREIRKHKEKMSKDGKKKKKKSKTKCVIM
Procedure: as §2, §3

GDP-loaded KRAS-G12C = GDP-loaded KRAS-G12C (Homo sapiens (Human), UniProt P01116, G12C); test: KRAS (GDP) biochemical TR-FRET probe displacement assay, KRAS-G12C; format: binding; details: 2 hours
GDP-loaded KRAS-G12C, sequence (P01116-2 other isoform, or with tags, fused parts or gaps G12C): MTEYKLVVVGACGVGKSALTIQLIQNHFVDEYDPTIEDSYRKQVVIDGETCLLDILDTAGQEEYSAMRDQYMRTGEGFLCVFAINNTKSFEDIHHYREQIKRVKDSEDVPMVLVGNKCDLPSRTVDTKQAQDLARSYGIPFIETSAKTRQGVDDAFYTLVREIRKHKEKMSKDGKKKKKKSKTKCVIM
Procedure: as §2, §3

[4] = system: cellular pERK in Kuramochi (WT KRAS) cell-line; test: Cell based pERK assay (HTRF), Kuramochi; details: Kuramochi (WT KRAS) cells, 2 hours incubation
In short: as §1

[5] = system: cellular pERK in NCI-H441 (KRAS-G12V) cell-line; test: Cell based pERK assay (HTRF), NCI-H441; details: Homo sapiens; NCI-H441 (KRAS-G12V) cells, 2 hours incubation
In short: as §1

| Compound | EC50 [1] [nM] | EC50 [2] [nM] | IC50 (GDP-loaded KRAS-G12V) [nM] | IC50 [3] [nM] | IC50 (GDP-loaded KRAS-G12D) [nM] | IC50 (GDP-loaded KRAS-G12C) [nM] | EC50 [4] [nM] | EC50 [5] [nM] |
| --- | --- | --- | --- | --- | --- | --- | --- | --- |
| C#Cc1c(F)ccc2cc(N)cc(-c3nc4c5c(nc(OC[C@@]67CCCN6[C@H](COc6cc(C(F)(F)F)cnn6)CC7)nc5c3F)N3CCCOC[C@@H]3CC4)c12 [Example 7-5] | 1.34 | 21.2 | 0.65 | 1.8 | 1.76 | 0.55 | 1.4 | 3.48 |
| C#Cc1c(F)ccc2cc(N)cc(-c3nc4c5c(nc(OC[C@@]67CCCN6[C@H](COc6nccnc6C(F)F)CC7)nc5c3F)N3CCCOC[C@@H]3CC4)c12 [Example 7-6] | 3.88 | 32.1 | 1.2 | 1.93 | 3.15 | 1.09 | 4.17 | 11.8 |
| C#Cc1c(F)ccc2cc(N)cc(-c3c(F)c4c5c(nc(OC[C@@]67CCCN6C[C@H](F)C7)nc5c3F)N3CCCOC[C@@H]3CC4)c12 [Example 7-12] | 8.18 | 104 | 15.8 | 30 | 24.6 | 4.58 | 7.88 | 32.6 |
| C#Cc1c(F)ccc2cc(O)cc(-c3nc4c5c(nc(OCC6(CN7CCCCC7)CC6)nc5c3F)N3CCCOC[C@@H]3CC4)c12 [Example 15-1, (S)-5-ethynyl-6-fluoro-4-(1-fluoro-12-((1-(piperidin-1-ylmethyl)cyclopropyl)methoxy)-4,5,5a,6,9,10-hexahydro-8H-7-oxa-3,10a,11,13-tetraazanaphtho[1,8-ab]heptalen-2-yl)naphthalen-2-ol] | 217 | 655 | 47.7 | 69.1 | 56.4 | 37.1 | 181 | 572 |
| C#Cc1c(F)ccc2cccc(-c3nc4c5c(nc(OC[C@@]67CCCN6[C@H](COC(=O)N6CCCCC6)CC7)nc5c3F)N3CCCOC[C@@H]3CC4)c12 [Example 16-2] | 0.28 | 0.62 | 0.2 | 0.17 | 0.24 | 0.19 | 1.99 | 0.56 |
| C#Cc1c(F)ccc2cc(O)cc(-c3nc4c5c(nc(OC[C@@]67CCCN6[C@H](COc6cc(C(F)(F)F)ncn6)CC7)nc5c3F)N3CCCOC[C@@H]3C=C4C)c12 [Example 18-1, 5-ethynyl-6-fluoro-4-((S)-1-fluoro-4-methyl-12-(((3S,7aS)-3-(((6-(trifluoromethyl)pyrimidin-4-yl)oxy)methyl)tetrahydro-1H-pyrrolizin-7a(5H)-yl)methoxy)-5a,6,9,10-tetrahydro-8H-7-oxa-3,10a,11,13-tetraazanaphtho[1,8-ab]heptalen-2-yl)naphthalen-2-ol] | 3.25 | 14 | 2.77 | 5.56 | 3.27 | 3.59 | 3.53 | 12.8 |
| C#Cc1c(F)ccc2cc(O)cc(-c3nc4c5c(nc(OC[C@@]67CCCN6[C@H](COc6cc(C(F)(F)F)cnn6)CC7)nc5c3F)N3CCCOC[C@@H]3C=C4C)c12 [Example 18-2] | 0.82 | 1.39 | 0.42 | 0.36 | 0.65 | 0.49 | 3.63 | 1.05 |
| C#Cc1c(F)ccc2cc(O)cc(-c3nc4c5c(nc(OC[C@@]67CCCN6[C@H](COC(C(F)(F)F)(C(F)(F)F)C(F)(F)F)CC7)nc5c3F)N3CCCOC[C@@H]3CC4)c12 [Example 22-4] | 0.86 | 2.31 | 1.59 | 1.2 | 1.65 | 1.83 | 3.16 | 1.97 |
| C#Cc1c(F)ccc2cc(O)cc(-c3nc4c5c(nc(OCC67CCCN6[C@H](COC(C(F)(F)F)C(F)(F)F)CC7)nc5c3F)N3CCCOCC3CC4)c12 (some centres unmarked) [Example 22-7] | 6.69 | 54.6 | 12.6 | 30.6 | 31 | 34.7 | 9.83 | 37.1 |
| C#Cc1c(F)ccc2cc(O)cc(-c3nc4c5c(nc(OCC67CCCN6[C@H](COCC(F)(F)F)CC7)nc5c3F)N3CCCOCC3CC4)c12 (some centres unmarked) [Example 22-8] | 5.57 | 14.6 | 1.37 | 1.61 | 0.36 | 0.67 | 2.15 | 6.08 |
